Test systems include SK-MEL-28 melanoma; HS 578T breast; 786-0 renal; EKVX NSCLC; MALME-3M melanoma; PC-3 prostate; SR leukemia; MCF7 breast; SNB-19 CNS; NCI-H226 lung.
Common to all, as to test: growth of human tumour cells (NCI), 48 h

Molecules are shown by their SMILES.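 Grown in 96-well plates, cells were treated for 48 hours with each compound at five concentrations. Insufficient inhibition: endpoint recorded as highest concentration tested. The concentration for 50% growth inhibition is given as GI50. TGI: concentration producing complete growth inhibition.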 Some results are limits rather than exact numbers.

For the compound `N#C/C(=C\c1cn(-c2ccccc2)c2ccccc12)C(=O)O`, the GI50 in the assay with SK-MEL-28 melanoma was 33.9 µM; with HS 578T breast, 32.2 µM; with 786-0 renal it was 61.2 µM; in the assay on EKVX NSCLC it was 34.2 µM; in the assay on MALME-3M melanoma, > 100 µM; in the assay with PC-3 prostate it was 58.3 µM. Moreover, the results for the GI50 in the assay on SR leukemia, in the assay with MCF7 breast and in the assay with SNB-19 CNS were 68.8 µM, 27.4 µM and 54.3 µM, respectively. The TGI in the assay with SK-MEL-28 melanoma, with HS 578T breast, in the assay on 786-0 renal, in the assay with EKVX NSCLC, with MALME-3M melanoma and with PC-3 prostate was > 100 µM in each case. Besides, the TGI with SR leukemia, with MCF7 breast and in the assay on SNB-19 CNS was > 100 µM each time.

Consider `COc1n[n+]([O-])c(C)cc1[N+](=O)[O-]`, for which the GI50 in the assay on HS 578T breast was 32.3 µM; in the assay with 786-0 renal it was 8.4 µM; in the assay on EKVX NSCLC it was 18.1 µM; with NCI-H226 lung, 24.4 µM; in the assay on MALME-3M melanoma, 3.04 µM; in the assay with PC-3 prostate, 15.9 µM. The figures for the GI50 with SR leukemia and in the assay with MCF7 breast were 11.1 µM and 2.07 µM, respectively. The TGI with HS 578T breast stood at 67.3 µM; with 786-0 renal it was 21.7 µM; in the assay with EKVX NSCLC it was 34.3 µM; in the assay on NCI-H226 lung, 63.3 µM; with MALME-3M melanoma, 9.85 µM; in the assay with PC-3 prostate, 32.6 µM. For the same compound, the figures for the TGI in the assay on SR leukemia and in the assay on MCF7 breast were 31.2 µM and 16.2 µM, respectively.

Regarding `COc1ccc(NC2=C(Sc3nc(C)cc(C)n3)C(=O)N(Cc3ccccc3)C2=O)cc1Cl`, the GI50 in the assay with SK-MEL-28 melanoma is > 160 µM; with HS 578T breast, 67.9 µM; in the assay on 786-0 renal, 49.2 µM; with EKVX NSCLC, 157 µM; in the assay on NCI-H226 lung, 39.5 µM; in the assay with MALME-3M melanoma, > 160 µM. For the same compound, the GI50 is 32.9 µM in the assay with PC-3 prostate, 37.5 µM with SR leukemia, 56.8 µM in the assay with MCF7 breast and > 160 µM with SNB-19 CNS. Moreover, the TGI in the assay on SK-MEL-28 melanoma, with HS 578T breast, in the assay with 786-0 renal, in the assay on EKVX NSCLC, in the assay with NCI-H226 lung and in the assay on MALME-3M melanoma was > 160 µM each time. Besides, the TGI in the assay with PC-3 prostate, in the assay on SR leukemia, in the assay on MCF7 breast and in the assay on SNB-19 CNS was > 160 µM in each case.

For the compound `COc1ccc(C2=NNC(c3ccc(-c4ccc(OC)cc4[N+](=O)[O-])o3)C2)cc1` (stereo not given), the GI50 with SK-MEL-28 melanoma is > 100 µM; with HS 578T breast, 22.1 µM; in the assay on 786-0 renal, 48.8 µM; in the assay with EKVX NSCLC, 18.4 µM; in the assay on MALME-3M melanoma it was 0.412 µM; in the assay on PC-3 prostate it was 83.3 µM. In addition, the GI50 was 20.2 µM with SR leukemia, 20 µM in the assay on MCF7 breast and 31.8 µM with SNB-19 CNS. The TGI with SK-MEL-28 melanoma was > 100 µM; in the assay on HS 578T breast, 57.5 µM; with 786-0 renal, > 100 µM; with EKVX NSCLC it was > 100 µM; in the assay on MALME-3M melanoma, 69.5 µM; in the assay with PC-3 prostate, > 100 µM. The TGI in the assay with SR leukemia, in the assay on MCF7 breast and in the assay on SNB-19 CNS was > 100 µM in each case.

Take `Cn1c2ccccc2c2c(=O)n(CCCC(=O)NCC(=O)OC(=NC3CCCCC3)NC3CCCCC3)c3c(-c4ccccc4)nnn3c21`: the GI50 with HS 578T breast was 9.43 µM; in the assay on 786-0 renal, 18.5 µM; with NCI-H226 lung, 40 µM; with MALME-3M melanoma, 47.2 µM; in the assay with PC-3 prostate, 22.7 µM; in the assay with SR leukemia, 3.04 µM. The GI50 with MCF7 breast was 3.62 µM. The TGI in the assay with HS 578T breast is > 100 µM; in the assay with 786-0 renal it was 45.1 µM; with NCI-H226 lung it was > 100 µM; with MALME-3M melanoma it was > 100 µM; with PC-3 prostate, > 100 µM; in the assay with SR leukemia it was 5.09 µM. Moreover, the TGI in the assay on MCF7 breast was > 100 µM.

Take `CCCCCCn1c(-c2ccc(C(=O)O/N=C(\N)c3ccc(OC)cc3)cc2)nc(-c2ccccc2)c1-c1ccccc1`: the GI50 in the assay with SK-MEL-28 melanoma is 2.96 µM; in the assay with HS 578T breast it was 1.2 µM; in the assay on 786-0 renal it was 0.276 µM; in the assay with EKVX NSCLC it was 1.7 µM; in the assay with MALME-3M melanoma, 1.75 µM; with PC-3 prostate, 1.67 µM. For the same compound, the values for the GI50 with SR leukemia, in the assay with MCF7 breast and with SNB-19 CNS were 0.196 µM, 1.61 µM and 1.85 µM, respectively. For the same compound, the TGI is > 100 µM in the assay on SK-MEL-28 melanoma; 3.1 µM with HS 578T breast; 0.833 µM in the assay with 786-0 renal; 3.38 µM in the assay with EKVX NSCLC; 3.55 µM in the assay on MALME-3M melanoma; 4.16 µM in the assay with PC-3 prostate. In addition, the TGI in the assay with SR leukemia was found to be 0.528 µM; with MCF7 breast, 3.72 µM; in the assay with SNB-19 CNS it was 4.64 µM.

For `CCCCCC(=O)N1c2ccccc2NC2=C(C(=O)CC(c3ccc(OC)c(OC)c3)C2)C1c1ccc(C(F)(F)F)cc1` (stereo not given), the GI50 with SK-MEL-28 melanoma was > 100 µM; in the assay with HS 578T breast, > 100 µM; in the assay on 786-0 renal, > 100 µM; in the assay with NCI-H226 lung, > 100 µM; in the assay with MALME-3M melanoma, > 100 µM; with PC-3 prostate, 6.25 µM. The GI50 is > 100 µM in the assay on SR leukemia, 24.3 µM in the assay with MCF7 breast and > 100 µM with SNB-19 CNS. The TGI with SK-MEL-28 melanoma, in the assay on HS 578T breast, in the assay on 786-0 renal, with NCI-H226 lung, with MALME-3M melanoma and in the assay with PC-3 prostate was > 100 µM each time. Further, the TGI with SR leukemia, in the assay on MCF7 breast and in the assay with SNB-19 CNS was > 100 µM in each case.

Regarding `Nc1nc(-n2cccn2)nc(-n2cccn2)c1Br`, the GI50 in the assay with SK-MEL-28 melanoma, in the assay with HS 578T breast, in the assay with 786-0 renal, with EKVX NSCLC, with NCI-H226 lung and in the assay on MALME-3M melanoma was > 100 µM throughout. The GI50 in the assay with PC-3 prostate, in the assay with SR leukemia and in the assay on MCF7 breast was > 100 µM in each case. The TGI in the assay with SK-MEL-28 melanoma, in the assay on HS 578T breast, in the assay with 786-0 renal, in the assay on EKVX NSCLC, in the assay with NCI-H226 lung and with MALME-3M melanoma was > 100 µM throughout. In addition, the TGI in the assay with PC-3 prostate, in the assay with SR leukemia and in the assay with MCF7 breast was > 100 µM in each case.

The record behind these values is PubChem BioAssay (NCI).
